Biological target: hFXR (Homo sapiens (Human), UniProt Q96RI1)
Experiment: In Vitro FXR Assay (TK)
Assay type: cell-based
Conditions: CV-1 cells transfected with hFXR, hRXR, TK-ECRE-luc and pCMX-YFP; incubated 18 hrs; luminescence; maximum efficacy <25% of the Fexarmine control classified as '+'
Method: Example B-1: In Vitro FXR Assay (TK)
CV-1 cells were seeded at a density of 2,000,000 cells in a T175 flask with DMEM+10% charcoal double-stripped FBS and incubated at 37° C. in 5% CO2 for 18 h (O/N).
After 18 h of incubation, the medium in the T175 flask was changed with fresh DMEM+10% charcoal super-stripped serum. In a polypropylene tube, 2500 μL OptiMEM (Life Technologies, Cat #31985-062) was combined with expression plasmids for hFXR, hRXR, TK-ECRE-luc and pCMX-YFP. The tube was then briefly vortexed and incubated at room temperature for 5 minutes. Transfection reagent (X-tremeGENE HP from Roche, Cat #06 366 236 001) was added to the OptiMEM/plasmid mixture vortexed and incubated at room temperature for 20 minutes. Following incubation, the transfection reagent/DNA mixture complex was added to cells in the T175 flask and the cells were incubated at 37° C. in 5% CO2 for 18 h (O/N).
Compounds were serially diluted in DMSO and added to transfected CV-1 cells. The cells were then incubated for 18 hrs. The next day cells were lysed and examined for luminescence.

Chain of hFXR (Q96RI1 whole entry): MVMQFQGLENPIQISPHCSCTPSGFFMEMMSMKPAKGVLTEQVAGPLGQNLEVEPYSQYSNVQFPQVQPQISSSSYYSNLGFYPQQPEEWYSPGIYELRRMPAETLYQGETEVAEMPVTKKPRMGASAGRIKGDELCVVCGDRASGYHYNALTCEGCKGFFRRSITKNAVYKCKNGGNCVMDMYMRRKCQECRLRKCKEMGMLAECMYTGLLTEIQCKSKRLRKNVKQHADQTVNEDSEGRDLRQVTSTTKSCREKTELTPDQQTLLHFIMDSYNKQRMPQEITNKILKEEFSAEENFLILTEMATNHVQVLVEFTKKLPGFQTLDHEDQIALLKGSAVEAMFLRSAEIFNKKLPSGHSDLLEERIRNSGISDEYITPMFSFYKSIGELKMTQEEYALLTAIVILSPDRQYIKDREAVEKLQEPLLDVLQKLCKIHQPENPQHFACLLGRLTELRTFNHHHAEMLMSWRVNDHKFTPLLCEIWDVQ
Chain of hFXR (P19793 whole entry partner): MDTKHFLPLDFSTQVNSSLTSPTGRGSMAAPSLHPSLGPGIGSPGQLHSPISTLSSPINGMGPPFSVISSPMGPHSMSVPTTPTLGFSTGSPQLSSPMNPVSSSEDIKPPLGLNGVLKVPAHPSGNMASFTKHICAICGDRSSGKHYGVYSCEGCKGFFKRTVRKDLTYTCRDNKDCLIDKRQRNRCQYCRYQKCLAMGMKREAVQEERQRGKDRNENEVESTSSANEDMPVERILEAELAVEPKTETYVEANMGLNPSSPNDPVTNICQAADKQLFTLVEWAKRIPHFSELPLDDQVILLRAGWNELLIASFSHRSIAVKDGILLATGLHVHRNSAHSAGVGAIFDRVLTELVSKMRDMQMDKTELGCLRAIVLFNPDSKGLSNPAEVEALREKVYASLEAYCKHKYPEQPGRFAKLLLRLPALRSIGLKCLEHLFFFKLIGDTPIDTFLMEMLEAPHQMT

| Structure (SMILES) | EC50 [nM] |
| --- | --- |
| COc1ccc([C@H]2CC[C@H](CN(c3cccc(-c4cnn(CC(F)F)c4)c3)C(=O)[C@H]3CC[C@H](O)CC3)CC2)cc1C [Compound 2.05, trans-N-(3-(1-(2,2-Difluoroethyl)-1H-pyrazol-4-yl)phenyl)-4-hydroxy-N-((trans-4-(4-methoxy-3-methylphenyl)cyclohexyl)methyl)cyclohexanecarboxamide] | ≤ 250 |
| CCn1cc(-c2cccc(N(C[C@H]3CC[C@H](c4ccc(OC)c(C)c4)CC3)C(=O)[C@H]3CC[C@H](O)CC3)c2)cn1 [Compound 2.02, trans-N-(3-(1-Ethyl-1H-pyrazol-4-yl)phenyl)-4-hydroxy-N-((trans-4-(4-methoxy-3-methylphenyl)cyclohexyl)methyl)cyclohexanecarboxamide] | ≤ 250 |
| COc1ccc([C@H]2CC[C@H](CN(c3cccc(-c4cnn(C(F)(F)F)c4)c3)C(=O)[C@H]3CC[C@H](O)CC3)CC2)cc1C [Compound 2.06, trans-4-Hydroxy-N-((trans-4-(4-methoxy-3-methylphenyl)cyclohexyl)methyl)-N-(3-(1-(trifluoromethyl)-1H-pyrazol-4-yl)phenyl)cyclohexanecarboxamide] | ≤ 250 |
| Cn1nc(F)c2cc([C@H]3CC[C@H](CN(c4cccc(-c5cnn(C6CC6)c5)c4)C(=O)[C@H]4CC[C@H](O)CC4)CC3)ccc21 [Compound 5, trans-N-(3-(1-Cyclopropyl-1H-pyrazol-4-yl)phenyl)-N-((trans-4-(3-fluoro-1-methyl-1H-indazol-5-yl)cyclohexyl)methyl)-4-hydroxycyclohexanecarboxamide] | ≤ 250 |
| COc1ccc([C@H]2CC[C@H](CN(c3cccc(C#Cc4cnn(C)c4)c3)C(=O)[C@H]3CC[C@H](O)CC3)CC2)cc1C [Compound 4, trans-4-Hydroxy-N-((trans-4-(4-methoxy-3-methylphenyl)cyclohexyl)methyl)-N-(3-((1-methyl-1H-pyrazol-4-yl)ethynyl)phenyl)cyclohexanecarboxamide] | ≤ 250 |
| COc1ccc([C@H]2CC[C@H](CN(c3cccc(-c4cnn(C)c4)c3)C(=O)[C@H]3CC[C@H](O)CC3)CC2)cc1C [Compound 2.01, trans-4-Hydroxy-N-((trans-4-(4-methoxy-3-methylphenyl)cyclohexyl)methyl)-N-(3-(1-methyl-1H-pyrazol-4-yl)phenyl)cyclohexanecarboxamide] | ≤ 250 |
| COc1ccc([C@H]2CC[C@H](CN(c3cc(-c4cnn(C5CC5)c4)ccn3)C(=O)[C@H]3CC[C@H](O)CC3)CC2)cc1C [Compound 2.07, trans-N-(4-(1-Cyclopropyl-1H-pyrazol-4-yl)pyridin-2-yl)-4-hydroxy-N-((trans-4-(4-methoxy-3-methylphenyl)cyclohexyl)methyl)cyclohexanecarboxamide] | ≤ 250 |

The next lines start with the values.

| EC50 [nM] | Structure (SMILES) |
| --- | --- |
| ≤ 250 | COc1ccc([C@H]2CC[C@H](CN(c3cccc(-c4cnn(C(C)C)c4)c3)C(=O)[C@H]3CC[C@@](C)(O)CC3)CC2)cc1C [Compound 5.28, (1s, 4s)-4-Hydroxy-N-(3-(1-isopropyl-1H-pyrazol-4-yl)phenyl)-N-((trans-4-(4-methoxy-3-methylphenyl)cyclohexyl)methyl)-4-methylcyclohexanecarboxamide] |
| ≤ 250 | COc1ccc([C@H]2CC[C@H](CN(C(=O)C3CCCCC3)c3cccc(-c4cnn(C5CC5)c4)c3)CC2)cc1C [Compound 5.24, N-(3-(1-Cyclopropyl-1H-pyrazol-4-yl)phenyl)-N-((trans-4-(4-methoxy-3-methylphenyl)cyclohexyl)methyl)cyclohexanecarboxamide] |
| ≤ 250 | COc1ncc([C@H]2CC[C@H](CN(c3cc(-c4cnn(C(C)C)c4)ccn3)C(=O)[C@H]3CC[C@H](O)CC3)CC2)cc1Cl [Compound 5.30, trans-N-((trans-4-(5-Chloro-6-methoxypyridin-3-yl)cyclohexyl)methyl)-4-hydroxy-N-(4-(1-isopropyl-1H-pyrazol-4-yl)pyridin-2-yl)cyclohexanecarboxamide] |
| ≤ 250 | COc1ncc([C@H]2CC[C@H](CN(c3cc(-c4cnn(C(C)C)c4)ccn3)C(=O)[C@H]3CC[C@H](O)CC3)CC2)cc1C [Compound 5.29, trans-4-Hydroxy-N-(4-(1-Isopropyl-1H-pyrazol-4-yl)pyridin-2-yl)-N-((trans-4-(6-methoxy-5-methylpyridin-3-yl)cyclohexyl)methyl)cyclohexanecarboxamide] |
| ≤ 250 | COc1ccc([C@H]2CC[C@H](CN(c3cccc(-c4cnn(C5CCOCC5)c4)c3)C(=O)[C@H]3CC[C@H](O)CC3)CC2)cc1C [Compound 3.10, trans-4-Hydroxy-N-((trans-4-(4-methoxy-3-methylphenyl)cyclohexyl)methyl)-N-(3-(1-(tetrahydro-2H-pyran-4-yl)-1H-pyrazol-4-yl)phenyl)cyclohexanecarboxamide] |
| ≤ 250 | COc1ccc([C@H]2CC[C@H](CN(c3cccc(-c4cnn(C5CCC5)c4)c3)C(=O)[C@H]3CC[C@H](O)CC3)CC2)nc1C [Compound 5.17, trans-N-(3-(1-Cyclobutyl-1H-pyrazol-4-yl)phenyl)-4-hydroxy-N-((trans-4-(5-methoxy-6-methylpyridin-2-yl)cyclohexyl)methyl)cyclohexanecarboxamide] |
| ≤ 250 | COc1ccc(C2CCC(CN(c3cccc(-c4cnn(C5CC5)c4)c3)C(=O)[C@H]3CC[C@@H](O)CC3)CC2)cc1C (stereo partly drawn) [Compound 5.25, cis-N-(3-(1-Cyclopropyl-1H-pyrazol-4-yl)phenyl)-4-hydroxy-N-((4-(4-methoxy-3-methylphenyl)cyclohexyl)methyl)cyclohexanecarboxamide] |
| ≤ 250 | COc1ccc([C@H]2CC[C@H](CN(c3cccc(-c4cnn(C(C)(C)C)c4)c3)C(=O)[C@H]3CC[C@H](O)CC3)CC2)nc1C [Compound 5.15, trans-N-(3-(1-(tert-Butyl)-1H-pyrazol-4-yl)phenyl)-4-hydroxy-N-((trans-4-(5-methoxy-6-methylpyridin-2-yl)cyclohexyl)methyl)cyclohexanecarboxamide] |
| ≤ 250 | COc1ccc([C@H]2CC[C@H](CN(c3cccc(-c4cnn(C5CC5)c4)c3)C(=O)[C@H]3CC[C@H](O)CC3)CC2)cc1Cl [Compound 5.03, trans-N-((trans-4-(3-Chloro-4-methoxyphenyl)cyclohexyl)methyl)-N-(3-(1-cyclopropyl-1H-pyrazol-4-yl)phenyl)-4-hydroxycyclohexanecarboxamide] |
| ≤ 250 | COc1ccc([C@H]2CC[C@H](CN(c3cccc(C#Cc4cn[nH]c4)c3)C(=O)[C@H]3CC[C@H](O)CC3)CC2)cc1C [Compound 4.01, trans-N-(3-((1H-Pyrazol-4-yl)ethynyl)phenyl)-4-hydroxy-N-((trans-4-(4-methoxy-3-methylphenyl)cyclohexyl)methyl)cyclohexanecarboxamide] |
| ≤ 250 | COc1ccc([C@H]2CC[C@H](CN(c3cccc(-c4cnn(CCF)c4)c3)C(=O)[C@H]3CC[C@H](O)CC3)CC2)cc1C [Compound 3.12, trans-N-(3-(1-(2-Fluoroethyl)-1H-pyrazol-4-yl)phenyl)-4-hydroxy-N-((trans-4-(4-methoxy-3-methylphenyl)cyclohexyl)methyl)cyclohexanecarboxamide] |
| ≤ 250 | COc1ccc([C@H]2CC[C@H](CN(c3cc(-c4cnn(C5CC5)c4)ccn3)C(=O)[C@H]3CC[C@H](O)CC3)CC2)cc1C#N [Compound 5.13, trans-N-((trans-4-(3-Cyano-4-methoxyphenyl)cyclohexyl)methyl)-N-(4-(1-cyclopropyl-1H-pyrazol-4-yl)pyridin-2-yl)-4-hydroxycyclohexanecarboxamide] |
| ≤ 250 | COc1ccc(C23CCC(CN(c4cccc(-c5cnn(C(C)C)c5)c4)C(=O)[C@H]4CC[C@H](O)CC4)(CC2)CC3)cc1C [Compound 6.02, trans-4-Hydroxy-N-(3-(1-isopropyl-1H-pyrazol-4-yl)phenyl)-N-((4-(4-methoxy-3-methylphenyl)bicyclo[2.2.2]octan-1-yl)methyl)cyclohexanecarboxamide] |
| ≤ 250 | COc1ccc([C@H]2CC[C@H](CN(c3cccc(-c4cnn(C(C)C)c4)c3)C(=O)[C@H]3CC[C@H](O)CC3)CC2)cc1C [Compound 3.02, trans-4-Hydroxy-N-(3-(1-isopropyl-1H-pyrazol-4-yl)phenyl)-N-((trans-4-(4-methoxy-3-methylphenyl)cyclohexyl)methyl)cyclohexanecarboxamide] |
| 250 to 1000 | COc1ccc([C@H]2CC[C@H](CN(c3cc(-c4cnn(C5CC5)c4)ccn3)C(=O)[C@H]3CC[C@H](O)CC3)CC2)nc1C [Compound 5.09, trans-N-(4-(1-Cyclopropyl-1H-pyrazol-4-yl)pyridin-2-yl)-4-hydroxy-N-((trans-4-(5-methoxy-6-methylpyridin-2-yl)cyclohexyl)methyl)cyclohexanecarboxamide] |
| ≤ 250 | COc1ccc([C@H]2CC[C@H](CN(c3cccc(-c4cnn(C(C)(C)C)c4)c3)C(=O)[C@H]3CC[C@H](O)CC3)CC2)cc1C [Compound 5.08, trans-N-(3-(1-(tert-Butyl)-1H-pyrazol-4-yl)phenyl)-4-hydroxy-N-((trans-4-(4-methoxy-3-methylphenyl)cyclohexyl)methyl)cyclohexanecarboxamide] |

From US10961198B2, “Farnesoid X receptor agonists and uses thereof” (Metacrine, Inc., priority 2017, dated 2021)
